In PubChem BioAssay AID1963865 (Molecular Pharmacology Branch, DTP, NCI, 2024):

System: KRAS PDC multicell spheroid viability
Assay: Anticancer human tumor 825966-067-R-J1-PDC patient-derived colon carcinoma cell line growth inhibition [KRAS2]
Details: for IC50: curve of first compound; for viability, T/C: stronger effect = lower value
Description: Multicellular complex tumor spheroid response to RAS pathway inhibitors in combination with a targeted agents in patient-derived cell lines with oncogenic KRAS variants from multiple cancer types
A high-throughput screen of multi-cell type tumor spheroids was designed to identify active combinations of targeted small molecules and KRAS pathway inhibitors. Complex spheroids include a stromal component modeled by human endothelial cells (HUVEC) and fibroblasts modeled by human mesenchymal stem cells (MSCs). The concentration ranges selected for each drug and investigational agent were based upon clinically achievable concentrations if the clinical Cmax of the agent was known.
Compounds. The drugs and investigational agents: BI-3406 (NSC825286), BAY-293 (NSC824723), batoprotafib (TNO155; NSC825523), sotorasib (AMG 510; NSC818433), MRTX1257 (NSC819558), elimusertib (BAY 1895344; NSC800525), molibresib (GSK525762; NSC774829), temuterkib (LY3214996; NSC803410), venetoclax (NSC766270), alisertib (NSC759677), olaparib (NSC753686), talazoparib (NSC767125), erdafitinib (NSC781556), ipatasertib (NSC767898), cabozantinib (NSC761068), nintedanib (NSC756659), abemaciclib (NSC768073), docetaxel (NSC628503), trametinib (NSC758246), and sapanisertib (NSC764658) were obtained from the National Cancer Institute (NCI) Developmental Therapeutics Program Chemical Repository. The FDA-approved anticancer drug set is available from the Developmental Therapeutics Program. […] The stock solutions were prepared in dimethyl sulfoxide (DMSO, Sigma-Aldrich, St. Louis, MO, cat. D2650) at 800-fold the tested concentration and stored at -70 degrees C prior to their use. All drugs and investigational agents were tested over a range starting from a high concentration at or near the clinical Cmax and decreasing in half-log increments. If the clinical Cmax for an agent had not been determined, the highest concentration tested was 10 microM.
Cell Culture. All cells were maintained in an incubator at 37 degrees C and 5% CO2 with 95% humidity. The PDC lines were cultured according to standard operating procedures established by the NCI PDMR (https://pdmr.cancer.gov/sops/default.htm). Briefly, all PDCs were thawed and cultured in Matrigel-coated flasks prepared with a working solution of 1X Ham's F-12 nutrient mix, without supplementation (Invitrogen, Waltham, MA, cat. 11765054), 100 U/mL penicillin-streptomycin (Invitrogen, cat. 15140122), and 2.5% Matrigel (Corning Inc., Corning, NY, cat. 354248) for the first three passages. All PDCs were cultured in complete DMEM/F-12 media containing advanced DMEM/F-12 (Invitrogen, cat. 12634028), 4.9% defined fetal bovine serum, heat inactivated (HyClone Laboratories Inc., Logan, UT, cat. SH30070.03HI), 389 ng/mL hydrocortisone (Sigma-Aldrich, cat. H4001), 9.7 ng/mL human EGF recombinant protein (Invitrogen, cat. PHG0313), 23.4 microg/mL adenine (Sigma-Aldrich, cat. A2786), 97.3 U/mL penicillin-streptomycin (Invitrogen, cat. 15140122), 1.9 mM L-glutamine (Invitrogen, cat. 25030081), and 9.7 microM Y-27632 dihydrochloride (Tocris Bioscience, Bristol, United Kingdom, cat. 1254). The PDCs were cultured in complete DMEM/F12 media without 9.7 microM Y-27632 dihydrochloride for at least two passages prior to the screen. The established cell line HOP-62 was cultured in RPMI 1640 medium, HEPES (Invitrogen, cat. 22400105) with 10% defined fetal bovine serum (HyClone Laboratories Inc., cat. SH30070.03) and 2 mM L-glutamine (Invitrogen, cat. 25030081). The pooled donor HUVEC were cultured in endothelial cell growth medium 2 (PromoCell, Heidelberg, Germany, cat. C-22011) and the hMSC were cultured in mesenchymal stem cell growth medium 2 (PromoCell, cat. C-28009). For all experiments, HUVEC and hMSC were used at passages </=5, while the malignant cell lines were used at passages </=15. […]

[1] = second compound 0.1 µM, first compound 0.0316 µM
[2] = second compound 0.1 µM, first compound 0.1 µM
[3] = second compound 0.1 µM, first compound 0.316 µM
[4] = second compound 0.1 µM, first compound 1 µM
[5] = second compound 0.1 µM, first compound 3.16 µM
[6] = second compound 0.1 µM, first compound 10 µM
[7] = second compound 0.316 µM, first compound 0.0316 µM
[8] = second compound 0.316 µM, first compound 0.1 µM
[9] = second compound 0.316 µM, first compound 0.316 µM
[10] = second compound 0.316 µM, first compound 1 µM
[11] = second compound 0.316 µM, first compound 3.16 µM
[12] = second compound 0.316 µM, first compound 10 µM
[13] = second compound 1 µM, first compound 0.0316 µM
[14] = second compound 1 µM, first compound 0.1 µM
[15] = second compound 1 µM, first compound 0.316 µM
[16] = second compound 1 µM, first compound 1 µM
[17] = second compound 1 µM, first compound 3.16 µM
[18] = second compound 1 µM, first compound 10 µM
[19] = second compound 3.16 µM, first compound 0.0316 µM
[20] = second compound 3.16 µM, first compound 0.1 µM
[21] = second compound 3.16 µM, first compound 0.316 µM
[22] = second compound 3.16 µM, first compound 1 µM
[23] = second compound 3.16 µM, first compound 3.16 µM
[24] = second compound 3.16 µM, first compound 10 µM
[25] = second compound 10 µM, first compound 0.0316 µM
[26] = second compound 10 µM, first compound 0.1 µM
[27] = second compound 10 µM, first compound 0.316 µM
[28] = second compound 10 µM, first compound 1 µM
[29] = second compound 10 µM, first compound 3.16 µM
[30] = second compound 10 µM, first compound 10 µM
[31] = second compound 0.1 µM, first compound 0.00316 µM
[32] = second compound 0.1 µM, first compound 0.01 µM
[33] = second compound 0.316 µM, first compound 0.00316 µM
[34] = second compound 0.316 µM, first compound 0.01 µM
[35] = second compound 1 µM, first compound 0.00316 µM
[36] = second compound 1 µM, first compound 0.01 µM
[37] = second compound 3.16 µM, first compound 0.00316 µM
[38] = second compound 3.16 µM, first compound 0.01 µM
[39] = second compound 10 µM, first compound 0.00316 µM
[40] = second compound 10 µM, first compound 0.01 µM
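Further: spheroids exposed to compounds for 7 days.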
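Wherever viability, T/C is given: 100% = DMSO vehicle control viability.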

SMILES | IC50 (second compound 0.1 µM) | IC50 (second compound 0.316 µM) | IC50 (second compound 1 µM) | IC50 (second compound 3.16 µM) | IC50 (second compound 10 µM) | viability, T/C [1] | viability, T/C [2] | viability, T/C [3] | viability, T/C [4] | viability, T/C [7] | viability, T/C [8] | viability, T/C [9] | viability, T/C [10] | viability, T/C [13] | viability, T/C [14] | viability, T/C [15] | viability, T/C [19] | viability, T/C [20] | viability, T/C [25] | viability, T/C [26] | other results
CC(C)NCC(C(=O)N1CCN(c2ncnc3c2C(C)CC3O)CC1)c1ccc(Cl)cc1 (stereo not given) + C=CC(=O)N1CCN(c2nc(=O)n(-c3c(C)ccnc3C(C)C)c3nc(-c4c(O)cccc4F)c(F)cc23)C(C)C1 | 2.27 µM | 1.64 µM | 1.47 µM | 1.6 µM | 0.235 µM | 105% | 139% | 155% | 93.6% | 104% | 127% | 136% | 73.7% | 88.7% | 121% | 120% | 97.2% | 130% | 76.2% | 150% | viability, T/C [5]: 35.2%; viability, T/C [6]: 10.4%; viability, T/C [11]: 26.6%; viability, T/C [12]: 10.6%; viability, T/C [16]: 69%; viability, T/C [17]: 16.9%; viability, T/C [18]: 6.64%; viability, T/C [21]: 110%; viability, T/C [22]: 68.5%; viability, T/C [23]: 23.6%; viability, T/C [24]: 9.85%; viability, T/C [27]: 27.9%; viability, T/C [28]: 14.5%; viability, T/C [29]: 6.65%; viability, T/C [30]: 2.19%
CC1(C)CCC(CN2CCN(c3ccc(C(=O)NS(=O)(=O)c4ccc(NCC5CCOCC5)c([N+](=O)[O-])c4)c(Oc4cnc5[nH]ccc5c4)c3)CC2)=C(c2ccc(Cl)cc2)C1 + C=CC(=O)N1CCN(c2nc(=O)n(-c3c(C)ccnc3C(C)C)c3nc(-c4c(O)cccc4F)c(F)cc23)C(C)C1 | 2.02 µM | 2.19 µM | 2.07 µM | 1.77 µM | 1.9 µM | 90.5% | 99.3% | 115% | 95.9% | 93.6% | 86.6% | 103% | 94.7% | 102% | 108% | 81.2% | 76.4% | 103% | 89.7% | 98.1% | viability, T/C [5]: 20.8%; viability, T/C [6]: 6.39%; viability, T/C [11]: 29.2%; viability, T/C [12]: 5.85%; viability, T/C [16]: 104%; viability, T/C [17]: 21.3%; viability, T/C [18]: 1.24%; viability, T/C [21]: 102%; viability, T/C [22]: 81.1%; viability, T/C [23]: 18.2%; viability, T/C [24]: 2.96%; viability, T/C [27]: 107%; viability, T/C [28]: 110%; viability, T/C [29]: 9.64%; viability, T/C [30]: 1.37%
CCN1CCN(Cc2ccc(Nc3ncc(F)c(-c4cc(F)c5nc(C)n(C(C)C)c5c4)n3)nc2)CC1 + C=CC(=O)N1CCN(c2nc(=O)n(-c3c(C)ccnc3C(C)C)c3nc(-c4c(O)cccc4F)c(F)cc23)C(C)C1 | > 1 µM | > 1 µM | > 1 µM | > 1 µM | 0.743 µM | 101% | 96.3% | 143% | 119% | 112% | 118% | 153% | 111% | 102% | 114% | 163% | 126% | 121% | 100% | 143% | viability, T/C [31]: 90%; viability, T/C [32]: 107%; viability, T/C [33]: 80.8%; viability, T/C [34]: 85.9%; viability, T/C [35]: 87.3%; viability, T/C [36]: 84.8%; viability, T/C [16]: 83%; viability, T/C [37]: 89.5%; viability, T/C [38]: 92.4%; viability, T/C [21]: 155%; viability, T/C [22]: 76.8%; viability, T/C [39]: 104%; viability, T/C [40]: 102%; viability, T/C [27]: 117%; viability, T/C [28]: 27.9%
Cn1ncnc1[C@H]1c2n[nH]c(=O)c3cc(F)cc(c23)N[C@@H]1c1ccc(F)cc1 + C=CC(=O)N1CCN(c2nc(=O)n(-c3c(C)ccnc3C(C)C)c3nc(-c4c(O)cccc4F)c(F)cc23)C(C)C1 | > 0.1 µM | > 0.1 µM | > 0.1 µM | > 0.1 µM | > 0.1 µM | 90.1% | 82.3% |  |  | 90.7% | 72.3% |  |  | 102% | 80.6% |  | 72% | 87.7% | 115% | 76.9% | viability, T/C (second compound 0.1 µM, first compound 0.000316 µM): 132%; viability, T/C (second compound 0.1 µM, first compound 0.001 µM): 100%; viability, T/C [31]: 98.2%; viability, T/C [32]: 89.6%; viability, T/C (second compound 0.316 µM, first compound 0.000316 µM): 100%; viability, T/C (second compound 0.316 µM, first compound 0.001 µM): 99.9%; viability, T/C [33]: 143%; viability, T/C [34]: 103%; viability, T/C (second compound 1 µM, first compound 0.000316 µM): 100%; viability, T/C (second compound 1 µM, first compound 0.001 µM): 91.7%; viability, T/C [35]: 75.2%; viability, T/C [36]: 79.3%; viability, T/C (second compound 3.16 µM, first compound 0.000316 µM): 109%; viability, T/C (second compound 3.16 µM, first compound 0.001 µM): 102%; viability, T/C [37]: 101%; viability, T/C [38]: 98.3%; viability, T/C (second compound 10 µM, first compound 0.000316 µM): 92.4%; viability, T/C (second compound 10 µM, first compound 0.001 µM): 124%; viability, T/C [39]: 93.2%; viability, T/C [40]: 111%
